Source: patent US10828378B2, “Nucleic acid construct for expression of oxidative stress indicator and use thereof” (Riken, priority 2011, dated 2020)
Counter-ions that a name gives are not always drawn.

Key:
[1] = system: OKD48-Luc reporter (Keap1-Nrf2 pathway); assay: Dual luciferase assay using the OKD48-Luc reporter in HeLa cells; assay type: cell-based, human; conditions: for response of HeLa cells containing OKD48-Luc (luciferase assay): 8 h or 16 h, 10 μM ASN, 100 μM DEM, 2.5 μg/ml tunicamycin, 1 μM thapsigargin, 1 mM DTT, 100 μM etoposide, 100 μg/ml TTFA, FIG. 5A
Procedure: HeLa cells or HEK293T cells were cultured in a DMEM medium supplemented with 100 U/ml penicillin, 100 μg/ml streptomycin, and 10% fetal bovine serum at 37° C. in an atmosphere containing 5% CO2. The plasmid DNAs were inserted into the cells of each line using the calcium phosphate-DNA precipitation method. In order to test cellular response to agents, the cells were treated with 10 μM sodium arsenite (ASN), 100 μM diethyl maleate (DEM), 200 μM H2O2, 2.5 μg/ml tunicamycin, 1 μM thapsigargin, 1 mM DTT, 100 μM etoposide, or 100 μg/ml thenoyltrifluoroacetone (TTFA) over varying times.
In dual luciferase assay using the OKD48-Luc reporter, phRL-TK (Promega Corp.) was used as an internal control. The HeLa cells were seeded on a 24-well plate and then transfected with the plasmid DNAs. At 24 hours after the transfection, the cells were lysed for luciferase assay. Each reporter activity was measured using a luciferase assay system (Promega Corp.) and a luminometer (Berthold Japan Co., Ltd.). The results were shown as mean±SEM of three experiments. Each value was indicated in terms of fold induction. This fold induction was normalized for that of an untreated sample (NT) (FIG. 5A), an untreated sample (NT) free from Nrf2 overexpression (FIG. 5D), or an untreated sample (NT) free from Keap1 overexpression (FIG. 5E). In this calculation, the fold induction of each NT was defined as 1.0.

OKD48-transgenic mouse = assay: In vivo luminescence imaging of OKD48-transgenic mouse; conditions: 12.5 mg/kg intraperitoneal, 6 hours later
Procedure: The 4.5-kb Spel-SfiI fragment of p(3×ARE)TKbasal-hNrf2(1-433)-GL4-Flag was microinjected as a transgene into the fertilized eggs of a C57BL/6 mouse. […] The obtained mouse was used for in vivo imaging assay. After intraperitoneal injection of D-luciferin (4.5 mg), the mouse was analyzed according to a standard protocol using an in vivo imaging system IVIS (Xenogen Corp.). The experimental protocol involving the animal was approved by the animal research committee of RIKEN (Japan).
In order to monitor oxidative stress in vivo, an OKD48-transgenic mouse having a 3×ARE-driven Nrf2(1-433)-Luc expression gene was prepared. In order to confirm that cells placed under oxidative stress were able to be effectively used in vivo, ASN inducing oxidative stress in various tissues or organs was intraperitoneally injected (12.5 mg/kg) to a transgenic mouse.

OKD48-Luc = assay: Western blot of OKD48-Luc protein with anti-Luc antibody in HEK293T cells; assay type: cell-based, human; conditions: 8 h treatment, FIG. 5B
Procedure: (§1) HeLa cells were transfected with the OKD48 construct. Luciferase assay was conducted after treatment for 8 hours or 16 hours in the presence or absence of different stressors (sodium arsenite (ASN), diethyl maleate (DEM), H2O2, tunicamycin (Tun), thapsigargin (Tg), dithiothreitol (DTT), etoposide (Etp), and thenoyltrifluoroacetone (TTFA)). […] HEK293T cells were transfected with the OKD48 construct and treated for 8 hours in the presence or absence of different stressors. The cell lysates were analyzed by Western blotting using an anti-Luc antibody or an anti-GAPDH antibody. […] HeLa cells were treated for 8 hours or 16 hours in the presence or absence of different stressors. Then, the cell lysates were analyzed by Western blotting using an anti-Luc antibody or an anti-GAPDH antibody. […]
(§2) The cells were lysed in an SDS sample buffer (50 mM Tris-HCl (pH 6.8), 2% SDS, 50 mM DTT, 10% glycerol, and 1 μg/ml bromophenol blue). […] After the electrophoresis, the proteins were electrically transferred to a polyvinylidene fluoride porous membrane and immunologically detected by a standard approach using a monoclonal antibody against luciferase (Promega Corp.), a monoclonal antibody against GFP (Nacalai Tesque, Inc.), a monoclonal antibody against GAPDH (Cell Signaling Technology, Inc.), or a polyclonal antibody against Nrf2 (Santa Cruz Biotechnology, Inc.).

OKD48-Venus reporter = assay: Fluorescence imaging of OKD48-Venus reporter in HEK293T cells; assay type: cell-based, human; conditions: 8 h treatment, FIG. 7A
Procedure: HEK293T cells were transfected with the OKD48-Venus construct and then treated for 8 hours in the presence or absence of sodium arsenite (ASN) or diethyl maleate. Their fluorescence images were obtained together with phase-contrast images. […] HEK293T cells were transfected with the OKD48-Venus construct and then treated for 8 hours in the presence or absence of sodium arsenite (ASN), diethyl maleate (DEM), H2O2, tunicamycin (Tun), thapsigargin (Tg), dithiothreitol (DTT), etoposide (Etp), or thenoyltrifluoroacetone (TTFA). Fluorescence from their cell lysates was measured and normalized for luciferase in the cotransfected cells. In the diagram, n.d. represents not detected. […] Their cell lysates were analyzed by Western blotting using an anti-GFP antibody or an anti-GAPDH antibody. […]
In order to take images of the cells, the HEK293T cells were seeded over a 6-well plate and then transfected with the plasmid DNAs. At 24 hours after the transfection, fluorescence images were obtained using FSX100 (Olympus Corp.). In order to measure the fluorescence of cell lysates, the cells were lysed in a digitonin buffer (50 mM Tris-HCl (pH 7.5), 1 mM EDTA, 10 mM EGTA, and 10 μM digitonin) at 37° C. for 30 minutes. […] The fluorescence intensity of each sample was normalized against the activity of luciferase derived from the cotransfected cells. […]

endogenous Nrf2 = assay: Western blot of endogenous Nrf2 in HeLa cells; assay type: cell-based, human; conditions: 8 h or 16 h treatment, FIG. 5C
Procedure: as §1, §2

## C/C=C(/C)C(=O)O[C@H]1C(C)=C2[C@H]([C@@H]1OC(=O)CCCCCCC)[C@@](C)(OC(C)=O)C[C@H](OC(=O)CCC)[C@@]1(O)[C@H]2OC(=O)[C@@]1(C)O [thapsigargin]
[1]
  response of HeLa cells containing OKD48-Luc (luciferase assay): rarely activated

## O=C(CC(=O)C(F)(F)F)c1cccs1 [thenoyltrifluoroacetone]
[1]
  response of HeLa cells containing OKD48-Luc (luciferase assay): rarely activated

## COc1cc([C@@H]2c3cc4c(cc3[C@@H](O[C@@H]3O[C@@H]5CO[C@@H](C)O[C@H]5[C@H](O)[C@H]3O)[C@H]3COC(=O)[C@H]23)OCO4)cc(OC)c1O [etoposide]
[1]
  response of HeLa cells containing OKD48-Luc (luciferase assay): rarely activated

## O=[As]O [ASN, sodium arsenite]
OKD48-transgenic mouse; abdominal section, FIG. 8
  luminescence in the liver: strong luminescence
OKD48-transgenic mouse; data not shown
  luminescence in other tissues or organs (e.g., stomach and kidney): detected to some extent
[1]; HeLa cells with Nrf2 overexpression, 8 h treatment, FIG. 5D
  activity of OKD48-Luc under Nrf2 overexpression, effect of stressor treatment: slightly increased
[1]
  response of HeLa cells containing OKD48-Luc (luciferase assay): specifically responded
OKD48-Luc
  OKD48-Luc at the protein level (Western blot, anti-Luc antibody): rise
OKD48-Venus reporter
  fluorescence of OKD48-Venus under microscopic observation: emitted fluorescence
Endogenous Nrf2
  induction of endogenous Nrf2 (Western blot): significantly induced

## CCOC(=O)/C=C\C(=O)OCC [DEM, diethyl maleate]
[1]
  response of HeLa cells containing OKD48-Luc (luciferase assay): specifically responded
OKD48-Luc
  OKD48-Luc at the protein level (Western blot, anti-Luc antibody): rise
OKD48-Venus reporter
  fluorescence of OKD48-Venus under microscopic observation: emitted fluorescence
Endogenous Nrf2
  induction of endogenous Nrf2 (Western blot): significantly induced

## tunicamycin
[1]
  response of HeLa cells containing OKD48-Luc (luciferase assay): rarely activated

## O[C@H](CS)[C@H](O)CS (racemic) [dithiothreitol]
[1]
  response of HeLa cells containing OKD48-Luc (luciferase assay): rarely activated
